Assay results taken from US20150344444A1, “BET-PROTEIN-INHIBITING DIHYDROXYQUINOXALINONES” (BAYER PHARMA AKTIENGESELLSCHAFT, priority 2012, published 2015).

Assays:
[1] = target: T1, BRD4 Bromo Domain 1 [BRD4(1)] (Homo sapiens, UniProt O60885); experiment: BRD4(1)/acetylated peptide H4 binding assay (TR-FRET); details: inhibition of interaction between His6-tagged BRD4(1) (amino acids 67-152) and acetylated histone H4 peptide
T1 construct: N-terminally His6-tagged BRD4(1) (amino acids 67-152); made in house; host or cells: E. coli
Source text: Protein-Protein Interaction Assay: BRD4/Acetylated Peptide H4 Binding Assay
1. Assay Description for BRD4 Bromo Domain 1 [BRD4(1)]
To assess the BRD4(1) binding strength of the substances described in this application, the ability thereof to inhibit the interaction between BRD4(1) and acetylated histone H4 in a dose-dependent manner was quantified.
For this purpose, a time-resolved fluorescence resonance energy transfer (TR-FRET) assay was used, which measures the binding between N-terminally His6-tagged BRD4(1) (amino acids 67-152) and a synthetic acetylated histone H4 (Ac-H4) peptide with sequence GRGK(Ac)GGK(Ac)GLGK(Ac)GGAK(Ac)RHGSGSK-biotin. The recombinant BRD4(1) protein produced in house according to Filippakopoulos et al., Cell, 2012, 149:214-231 was expressed in E. coli and purified by means of (Ni-NTA) affinity and (Sephadex G-75) size exclusion chromatography. The Ac-H4 peptide can be purchased, for example, from Biosyntan (Berlin, Germany).
In the assay, typically 11 different concentrations of each substance (0.1 nM, 0.33 nM, 1.1 nM, 3.8 nM, 13 nM, 44 nM, 0.15 μM, 0.51 μM, 1.7 μM, 5.9 μM and 20 μM) were analysed as duplicates on the same microtitre plate. For this purpose, 100-fold concentrated solutions in DMSO were prepared by serial dilutions (1:3.4) of a 2 mM stock solution into a clear, 384-well microtitre plate (Greiner Bio-One, Frickenhausen, Germany). From this, 50 nl were transferred into a black test plate (Greiner Bio-One, Frickenhausen, Germany). The test was started by the addition of 2 μl of a 2.5-fold concentrated BRD4(1) solution (final concentration typically 10 nM in the 5 μl of reaction volume) in aqueous assay buffer [50 mM HEPES pH 7.5, 50 mM sodium chloride (NaCl), 0.25 mM CHAPS and 0.05% serum albumin (BSA)] to the substances in the test plate. This was followed by a 10-minute incubation step at 22° C. for the pre-equilibration of putative complexes between BRD4(1) and the substances.
The mixture was then incubated in the dark at 22° C. for one hour and then at 4° C. for at least 3 hours and for no longer than overnight. The formation of BRD4(1)/Ac-H4 complexes was determined by the measurement of the resonance energy transfer from the streptavidin-Eu cryptate to the anti-6His-XL665 antibody present in the reaction. For this purpose, the fluorescence emission was measured at 620 nm and 665 nm after excitation at 330-350 nm in a TR-FRET measuring instrument, for example a Rubystar or Pherastar (both from BMG Lab Technologies, Offenburg, Germany) or a Viewlux (Perkin-Elmer). The ratio of the emissions at 665 nm and at 622 nm was taken as an indicator of the amount of BRD4(1)/Ac-H4 complexes formed.
The data (ratios) obtained were normalized, with 0% inhibition corresponding to the mean from the measurements for a set of controls (typically 32 data points) in which all the reagents were present. In these, in place of test substances, 50 nl of DMSO (100%) were used Inhibition of 100% corresponded to the mean from the measurements for a set of controls (typically 32 data points) in which all the reagents except BRD4(1) were present. The IC50 was determined by regression analysis based on a 4-parameter equation (minimum, maximum, IC50, Hill; Y=max+(min−max)/(1+(X/IC50)Hill).

MOLM-13 cells = experiment: MOLM-13 cell proliferation assay (alamarBlue); assay type: cell-based; details: inhibition of cell proliferation, 96 hours, human AML cell line
Experimental: (§1) In accordance with the invention, the ability of the substances to inhibit cell proliferation was determined Cell viability was determined by means of the alamarBlue® reagent (Invitrogen) in a Victor X3 Multilabel Reader (Perkin Elmer). The excitation wavelength was 530 nm and the emission wavelength […].
The MOLM-13 cells (DSMZ, ACC 554) were sown at a concentration of 4000 cells/well in 100 μl of growth medium (RPMI1640, 10% FCS) on 96-well microtitre plates.
(§2) After overnight incubation at 37° C., the fluorescence values were determined (CI values). Then the plates were treated with various substance dilutions (1E-5 M, 3E-6 M, 1E-6 M, 3E-7 M, 1E-7 M, 3E-8 M, 1E-8 M) and incubated at 37° C. over 96 hours (MOLM-13, B16F10 cells) or 120 hours (MOLP-8 cells). Subsequently, the fluorescence values were determined (CO values). For the data analysis, the CI values were subtracted from the CO values and the results were compared between cells which had been treated with various dilutions of the substance or only with buffer solution. The IC50 values (substance concentration needed for 50% inhibition of cell proliferation) were calculated therefrom.
MOLM-13 human AML (acute myeloid leukaemia) cell line

B16F10 cells = experiment: B16F10 cell proliferation assay (alamarBlue); assay type: cell-based; details: B16-F10; inhibition of cell proliferation, 96 hours, mouse melanoma cell line
Experimental: as §1
The B16F10 cells (ATCC, CRL-6475) were sown at a concentration of 300-500 cells/well in 100 μl of growth medium (DMEM with phenol red, 10% FCS) on 96-well microtitre plates.
as §2
B16F10 mouse melanoma cell line

MOLP-8 cells = experiment: MOLP-8 cell proliferation assay (alamarBlue); assay type: cell-based; details: inhibition of cell proliferation, 120 hours, human multiple myeloma cell line
Experimental: as §1
The MOLP-8 cells (DSMZ, ACC 569) were sown at a concentration of 4000 cells/well in 100 μl of growth medium (RPMI1640, 20% FCS) on 96-well microtitre plates.
as §2
MOLP-8 human multiple myeloma cell line

IC50 [1]: 50 nM | IC50 (MOLM-13 cells): 356 nM | IC50 (B16F10 cells): 643 nM
Compound: C[C@@H]1C(=O)N(C)c2ccc(Nc3ccc(C(=O)NC4CCN(C)CC4)cc3)cc2N1C1CCCC1 [Example 4, 4-{[(3R)-4-cyclopentyl-1,3-dimethyl-2-oxo-1,2,3,4-tetrahydroquinoxalin-6-yl]amino}-N-(1-methylpiperidin-4-yl)benzamide]
IC50 (MOLP-8 cells): 468 nM
